Measurements published in paper PMC8286840, “Identifying SARS-CoV-2 antiviral compounds by screening for small molecule inhibitors of Nsp3 papain-like protease” (Biochemical Journal, 2021).
Counter-ions that a name gives are not always drawn. Like-named read-outs stand apart in the source and are kept apart here.

Key:
[1] = molecular target: T1, SARS-CoV-2 PLpro (nsp3 1564–1878) (Severe acute respiratory syndrome coronavirus 2, UniProt P0DTD1); experiment: biochemical; set-up: FRET-quenched peptide (Pro3) cleavage by PLpro, 10 min pre-incubation, slope over 20 min, normalised to no-compound control; settings: high concentration screen, read-out: % of control remaining
[2] = molecular target: T1, SARS-CoV-2 PLpro (nsp3 1564–1878); experiment: biochemical; set-up: FRET-quenched peptide (Pro3) cleavage by PLpro, 10 min pre-incubation, slope over 20 min, normalised to no-compound control; settings: low concentration screen, read-out: % of control remaining

O=C1Nc2ccccc2C1=O [Isatin]
remaining activity at 3.75 µM ([1]; Well no.=8350): 95.1% | remaining activity at 1.25 µM ([2]; Well no.=8350): 95.6%

C#C[C@]1(CO)O[C@@H](n2cnc3c(N)nc(F)nc32)C[C@@H]1O [Islatravir]
remaining activity at 3.75 µM ([1]; Well no.=7822): 105% | remaining activity at 1.25 µM ([2]; Well no.=7822): 105%

C=C1C(=O)O[C@@H]2C[C@@]3(C)CCCC(=C)[C@@H]3C[C@H]12 [Isoalantolactone]
remaining activity at 3.75 µM ([1]; Well no.=6728): 93.6% | remaining activity at 1.25 µM ([2]; Well no.=6728): 97.1%

CC(C)=CCc1c(O)ccc(C(=O)/C=C/c2ccc(O)cc2)c1O [Isobavachalcone]
remaining activity at 3.75 µM ([1]; Well no.=6538): 97.1% | remaining activity at 1.25 µM ([2]; Well no.=6538): 102%

O=C1NC(=O)c2c1c1c3ccccc3[nH]c1n1cncc21 [Isogranulatimide]
remaining activity at 3.75 µM ([1]; Well no.=2504): 90.7% | remaining activity at 1.25 µM ([2]; Well no.=2504): 94.2%

O=C(O)C1=CCNCC1 [Isoguvacine hydrochloride]
remaining activity at 3.75 µM ([1]; Well no.=412): 91.8% | remaining activity at 1.25 µM ([2]; Well no.=412): 94.2%

O=C(/C=C/c1ccc(O)cc1)c1ccc(O)cc1O [Isoliquiritigenin]
remaining activity at 3.75 µM ([1]; Well no.=963): 101% | remaining activity at 1.25 µM ([2]; Well no.=963): 99.7%

NNC(=O)c1ccncc1 [Isoniazid]
remaining activity at 3.75 µM ([1]; Well no.=1744): 103% | remaining activity at 1.25 µM ([2]; Well no.=1744): 101%

O=C(O)C1CCNCC1 [Isonipecotic acid]
remaining activity at 3.75 µM ([1]; Well no.=1067): 96.7% | remaining activity at 1.25 µM ([2]; Well no.=1067): 92.8%

C=C[C@@]1(C)CC[C@H]2C(=CC[C@@H]3[C@]2(C)CCC[C@@]3(C)C(=O)O)C1 [Isopimaric Acid]
remaining activity at 3.75 µM ([1]; Well no.=5672): 93.1% | remaining activity at 1.25 µM ([2]; Well no.=5672): 94.1%

CC(C)NCC(O)c1ccc(O)c(O)c1 (stereo not drawn) [Isoprenaline (hydrochloride)]
remaining activity at 3.75 µM ([1]; Well no.=6761): 101% | remaining activity at 1.25 µM ([2]; Well no.=6761): 99.4%

COc1cc(-c2oc3cc(O)cc(O)c3c(=O)c2O)ccc1O [Isorhamnetine]
remaining activity at 3.75 µM ([1]; Well no.=3150): 99.7% | remaining activity at 1.25 µM ([2]; Well no.=3150): 99.4%

C[C@@H]1O[C@@H](OC[C@H]2O[C@@H](Oc3cc(O)c4c(=O)cc(-c5ccc(O)cc5)oc4c3)[C@H](O)[C@@H](O)[C@@H]2O)[C@H](O)[C@H](O)[C@H]1O [Isorhoifolin]
remaining activity at 3.75 µM ([1]; Well no.=3297): 104% | remaining activity at 1.25 µM ([2]; Well no.=3297): 99.4%

COc1ccc2cc1Oc1ccc(cc1)C[C@H]1c3cc(c(OC)cc3CCN1C)Oc1c(OC)c(OC)cc3c1[C@@H](C2)N(C)CC3 [Isotetrandrine]
remaining activity at 3.75 µM ([1]; Well no.=3365): 98.1% | remaining activity at 1.25 µM ([2]; Well no.=3365): 100%

CCC(NC(C)C)C(O)c1ccc(O)c(O)c1 (stereo not drawn) [Isotharine mesylate]
remaining activity at 3.75 µM ([1]; Well no.=915): 104% | remaining activity at 1.25 µM ([2]; Well no.=915): 104%

CC1=C(/C=C/C(C)=C/C=C/C(C)=C\C(=O)O)C(C)(C)CCC1 [Isotretinoin]
remaining activity at 3.75 µM ([1]; Well no.=6303): 108% | remaining activity at 1.25 µM ([2]; Well no.=6303): 108%

CC(C)CC(N)=O [Isovaleramide]
remaining activity at 3.75 µM ([1]; Well no.=8346): 81.6% | remaining activity at 1.25 µM ([2]; Well no.=8346): 89.1%

O=c1cc(-c2ccc(O)cc2)oc2cc(O)c([C@@H]3O[C@H](CO)[C@@H](O)[C@H](O)[C@H]3O)c(O)c12 [Isovitexin]
remaining activity at 3.75 µM ([1]; Well no.=3301): 98.6% | remaining activity at 1.25 µM ([2]; Well no.=3301): 99.2%

Nc1nc2[nH]c(=O)cnc2c(=O)[nH]1 [Isoxanthopterin]
remaining activity at 3.75 µM ([1]; Well no.=1109): 100% | remaining activity at 1.25 µM ([2]; Well no.=1109): 96.8%

Cc1ccc(C(=O)N(CCCN)[C@@H](c2nc3cc(Cl)ccc3c(=O)n2Cc2ccccc2)C(C)C)cc1 [Ispinesib (SB-715992)]
remaining activity at 3.75 µM ([1]; Well no.=5243): 92.3% | remaining activity at 1.25 µM ([2]; Well no.=5243): 94.6%

CCn1c(=O)c2c(nc(/C=C/c3ccc(OC)c(OC)c3)n2C)n(CC)c1=O [Istradefylline (KW-6002)]
remaining activity at 3.75 µM ([1]; Well no.=5121): 110% | remaining activity at 1.25 µM ([2]; Well no.=5121): 106%

CCn1c(=O)c2c(nc(/C=C/c3ccc(OC)c(OC)c3)n2C)n(CC)c1=O [Istradefylline]
remaining activity at 3.75 µM ([1]; Well no.=6903): 99.6% | remaining activity at 3.75 µM ([1]; Well no.=8461): 101% | remaining activity at 1.25 µM ([2]; Well no.=6903): 98.1% | remaining activity at 1.25 µM ([2]; Well no.=8461): 109%

COc1ccc(C(=O)NCc2ccc(OCCN(C)C)cc2)cc1OC [Itopride]
remaining activity at 3.75 µM ([1]; Well no.=2226): 88.2% | remaining activity at 1.25 µM ([2]; Well no.=2226): 87.9%

COc1cc2c(cc1OC)CC(=O)N(CCCN(C)C[C@H]1Cc3cc(OC)c(OC)cc31)CC2 [Ivabradine (hydrochloride)]
remaining activity at 3.75 µM ([1]; Well no.=7625): 94.7% | remaining activity at 1.25 µM ([2]; Well no.=7625): 99.3%

COc1cc2c(cc1OC)CC(=O)N(CCCN(C)C[C@H]1Cc3cc(OC)c(OC)cc31)CC2 [Ivabradine hydrochloride]
remaining activity at 3.75 µM ([1]; Well no.=5419): 106% | remaining activity at 1.25 µM ([2]; Well no.=5419): 104%

CC(C)(C)c1cc(C(C)(C)C)c(NC(=O)c2c[nH]c3ccccc3c2=O)cc1O [Ivacaftor (VX-770)]
remaining activity at 3.75 µM ([1]; Well no.=5055): 102% | remaining activity at 1.25 µM ([2]; Well no.=5055): 105%

N#Cc1ccnc(N2C(=O)CC[C@H]2C(=O)N(c2cncc(F)c2)[C@H](C(=O)NC2CC(F)(F)C2)c2ccccc2Cl)c1 [Ivosidenib (AG-120)]
remaining activity at 3.75 µM ([1]; Well no.=8630): 92.7% | remaining activity at 1.25 µM ([2]; Well no.=8630): 95.1%

C/C(=C\c1csc(C)n1)[C@@H]1C[C@@H]2O[C@]2(C)CCC[C@H](C)[C@H](O)[C@@H](C)C(=O)C(C)(C)[C@@H](O)CC(=O)N1 [Ixabepilone]
remaining activity at 3.75 µM ([1]; Well no.=6934): 107% | remaining activity at 1.25 µM ([2]; Well no.=6934): 108%

CC(C)N(CCC(=O)c1ccc2ccccc2c1)Cc1ccccc1 [JAK3 Inhibitor IV]
remaining activity at 3.75 µM ([1]; Well no.=2459): 93.9% | remaining activity at 1.25 µM ([2]; Well no.=2459): 94%

CC(C)(C)c1nc2c3cc[nH]c(=O)c3c3cc(F)ccc3c2[nH]1 [JAK Inhibitor I]
remaining activity at 3.75 µM ([1]; Well no.=2455): 103% | remaining activity at 1.25 µM ([2]; Well no.=2455): 101%

CC(C)[C@H](N=C(NS(=O)(=O)c1ccc(Cl)cc1)N1C[C@H](c2ccccc2)C(c2ccc(Cl)cc2)=N1)C(N)=O [JD-5037]
remaining activity at 3.75 µM ([1]; Well no.=8487): 82.1% | remaining activity at 1.25 µM ([2]; Well no.=8487): 97.2%

CC(C)[C@@H](CN1CC[C@@](C)(c2cccc(O)c2)[C@@H](C)C1)NC(=O)[C@H]1Cc2ccc(O)cc2CN1 [JDTic (dihydrochloride)]
remaining activity at 3.75 µM ([1]; Well no.=7139): 97% | remaining activity at 1.25 µM ([2]; Well no.=7139): 99.3%

Cc1ccc2c(c1)C(N1CCN(C)CC1)=Nc1cccnc1N2 [JL-18]
remaining activity at 3.75 µM ([1]; Well no.=781): 103% | remaining activity at 1.25 µM ([2]; Well no.=781): 107%

CO[C@H]1CC[C@@H](C(=O)c2ccc3nc4c(cc3c2)CCCO4)CC1 [JNJ16259685]
remaining activity at 3.75 µM ([1]; Well no.=6955): 102% | remaining activity at 1.25 µM ([2]; Well no.=6955): 100%

Cn1cc(-c2ccc3nnc(C(F)(F)c4ccc5ncccc5c4)n3n2)cn1 [JNJ38877605]
remaining activity at 3.75 µM ([1]; Well no.=2887): 102% | remaining activity at 1.25 µM ([2]; Well no.=2887): 101%
